PubChem BioAssay AID179 (DTP/NCI, 2004)
Calls of active or inactive are those of the source.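 How the source made its calls: active means compounds giving half or more protection of infected cells from virus-caused growth loss, again on retest; inactive means the rest.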 Where a SMILES comes first, the peptide text is derived from it. [ ]: non-standard residue; d: D form. The star is where a group is joined. ξ: configuration not given here. ξF = NC(Cc1ccccc1)C(=O)O; Cbz = O=C(OCc1ccccc1)*

System: CEM cells HIV-1 protection, formazan growth assay
Assay: NCI AIDS Antiviral Assay
Details: for IC50: measured here: growth of uninfected CEM cells
In short: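 Protection of CEM cells against HIV-1 was scored from cell growth (soluble formazan) across five concentrations, with parallel uninfected cells. Lack of protection may reflect toxicity.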

| SMILES | EC50 [µM] | IC50 [µM] | outcome |
| --- | --- | --- | --- |
| CCN(CC)C(=O)COc1cc2c(O)c3c(O)c(C)c4c(c13)C(=O)C(C)(O/C=C/C(OC)C(C)C(OC(C)=O)C(C)C(O)C(C)C(O)C(C)/C=C/C=C(\C)C(=O)N2)O4 (configuration not stated) | > 200 | 74.1 |  |
| CC1=[N+]([O-])C(C)(C)N(N=O)C1(C)C | > 200 | > 200 |  |
| [O-]/[N+](=N/c1ncc(-c2ccccc2)cn1)c1ncc(-c2ccccc2)cn1 | > 200 | 31.6 |  |
| Cn1nnc2c(C(N)=O)ncn2c1=O | > 1290 | 776 |  |
| O=S1OC2(c3ccccc3-c3ccccc32)c2ccccc21 (configuration not stated) |  |  | inactive |
| CC(=O)/C(=C/n1ccc(=O)[nH]c1=S)C(=O)Nc1ccccc1 | > 200 | > 200 |  |
| CCCCC(O)(Cc1ccccc1)c1ccc(OCCN(CC)CC)cc1 (configuration not stated) | > 200 | 14.1 |  |
| CC(C)(C)OC(=O)N1CC(O)O[C@H](c2ccccc2)[C@@H]1c1ccccc1 (some centres not stated) | > 200 | 32.4 |  |
| CCCCCCCCCCSC(=O)NC |  |  | inactive |
| CCOC(=O)C(CC#N)(NC(C)=O)C(=O)OCC | > 200 | > 200 |  |
| CC(C)=CCC/C(C)=C\C=N/O | > 155 | 8.13 |  |
| O=C1OC(c2ccccc2)=C2CCC3CCCCN1C23 (configuration not stated) | > 132 | > 132 |  |
| CCOC(=O)C(Cl)(NC(=O)NC(Cl)(C(=O)OCC)C(F)(F)F)C(F)(F)F (configuration not stated) | > 200 | > 200 |  |
| CCOC(=O)CNC(=O)C(Cc1ccccc1)NC(=O)OCc1ccccc1 (configuration not stated) (Cbz-[ξF]-Gly-OEt) | > 200 | 191 |  |
| CN(C)c1ccc(/C=C(\C#N)C(=O)c2ccccc2)cc1 | > 29.5 | 6.17 |  |
| CCOc1ccc(NCC(=O)N2CC(=O)Nc3cc(C)c(C)cc32)cc1 | > 20.4 | > 20.4 |  |
| CNc1ccccc1S(=O)(=O)c1cc(Cl)ccc1OC | 151 | > 200 |  |
| COC(=O)c1cc(C(=CCCN=[N+]=[N-])c2cc(Br)c(OC)c(C(=O)OC)c2)cc(Br)c1OC | 3.24 | 93.3 |  |
| O=C1NC2C(NC(=O)N2Cl)N1Cl (configuration not stated) | > 200 | > 200 |  |
| CC(=O)N1C(Nc2cnc3ccccc3c2)CCN1c1ccccc1 (configuration not stated) | > 200 | 17.8 |  |
| N#Cc1cccc(N2C(=O)c3ccc(C(=O)c4ccc5c(c4)C(=O)N(c4cccc(C#N)c4)C5=O)cc3C2=O)c1 | > 7.24 | > 7.24 |  |

| SMILES | EC50 [µM] | IC50 [µM] | outcome |
| --- | --- | --- | --- |
| O=S(=O)([O-])c1ccc2c(c1)-c1nc-2nc2[n-]c(nc3nc(nc4[n-]c(n1)c1ccc(S(=O)(=O)[O-])cc41)-c1cc(S(=O)(=O)[O-])ccc1-3)c1ccc(S(=O)(=O)[O-])cc21.[Cu+2].[Na+] | > 251 | 0.603 |  |
| O=C(CCc1cc(O)cc(O)c1)NCCCNC(=O)CCc1cc(O)cc(O)c1 | > 200 | > 200 |  |
| CC1=NN(C(=O)c2ccncc2)C(=O)C1 | > 200 | > 200 |  |
| COC(=O)C1(Cc2ccccc2)Cc2cc3c(cc2C1)CCC3 | > 200 | 60.3 |  |
| Cc1cccc(N=C2NC(=O)C(CC(=O)Nc3ccc(C)cc3C)S2)c1 (configuration not stated) | > 26.9 | > 26.9 |  |
| CC1(CC(=O)O)OC2CCCCCC2O1 (configuration not stated) (tested in a mixture with another compound) |  |  | inactive |
| Nc1nc2nsnc2nc1N | > 240 | > 240 |  |
| CC1NCCc2c1[nH]c1ccc(O)cc21 (configuration not stated) |  |  | inactive |
| Nc1ncnc2c1ncn2C1CCC(COS(N)(=O)=O)C1 (configuration not stated) | > 200 | > 200 |  |
| CC[C@]1(Cc2ccc(OC)c(OC)c2)[C@@H]2C[C@@H](C(=O)OC)ON2O[C@H](OC2CCCC2(c2ccccc2)c2ccccc2)[C@@H]1OC(C)=O (some centres not stated) | > 200 | 21.4 |  |
| C/C(N=NC(=S)N1CC2CCC(CC2)C1)=C1\C=CC=CN1O | > 158 | 1.86 |  |
| COc1ccccc1NC(=O)/C(=C/C1CC(=O)NC1=S)C(C)=O (configuration not stated) | > 200 | > 200 |  |
| C#CC1=CC(=O)C(OC)=CC1=O | > 200 | 31.6 |  |
| Cn1c(=O)c2c(=O)c(=O)[nH][nH]c2n(C)c1=O | > 200 | > 200 |  |
| CNC(=O)N1CN(c2ccccc2)C2(CCN(Cc3ccccc3)CC2)C1=O | 195 | > 200 |  |
| COc1ccccc1/C=C1\C(=O)N(C(=O)c2ccc(NC(C)=O)cc2)N=C1C | > 19.1 | > 19.1 |  |
| COc1ccc(-c2cc(C)n(C3OC(CO)C(O)C(O)C3O)c(=S)c2C#N)cc1 (configuration not stated) | > 200 | 126 |  |
| Oc1c(OCc2nnc(CCCCCCCCc3nnc(COc4ccc5ccccc5c4O)n3Nc3ccccc3)n2Nc2ccccc2)ccc2ccccc12 | > 2 | > 2 |  |
| Cc1cc(C(F)(F)F)cc(-n2nc(NS(=O)(=O)c3cc(C)c(Cl)cc3S)nc2N)n1 | > 200 | 166 |  |
| Cc1cccc(NP2(=O)NCCCN2)c1 | 316 | 398 |  |
| Nc1ccccc1/C=C1/Sc2cc[nH]c2C1=O | > 63.1 | > 63.1 |  |

| SMILES | EC50 [µM] | IC50 [µM] | outcome |
| --- | --- | --- | --- |
| NCC(CS)C(=O)NC(CS)C(=O)NC(CS)C(=O)NCCNc1ccc(NCCNC(=O)C(CS)NC(=O)C(CS)NC(=O)C(CN)CS)c2c1C(=O)c1c(O)ccc(O)c1C2=O (configuration not stated) | > 2 | 0.0126 |  |
| O=C(/C=C/c1cccc(Cl)c1)c1ccccc1 | > 11.2 | > 11.2 |  |
| O=C(N/N=C\c1cccnc1)c1ccncc1 | > 200 | > 200 |  |
| COc1cc(C)c2c(c1C=O)Oc1c(c(C)c(O)c3c1C(O)OC3=O)OC2=O (configuration not stated) | > 93.3 | 53.7 |  |
| COc1cccc(CCn2c(N)c(C#N)c3ccc([N+](=O)[O-])cc3c2=O)c1 | > 200 | 1.12 |  |
| CCN(CC)CCOc1cccc(NC(=O)CN(CC)CC)c1 | > 200 | 81.3 |  |
| COC(=O)CCn1cnc2c(SC)ncnc21 | > 200 | > 200 |  |
| C=C1OC(c2ccccc2NC)=NC12CCCCC2 | > 200 | 115 |  |
| COc1ccc(N2C(=O)C3c4[nH]c5c(C)cccc5c4C4CCC(c5ccccc5)CC4C3C2=O)cc1 (configuration not stated) | > 200 | 60.3 |  |
| O=C1CC2CCCC23CC2(CCN13)OCCO2 (configuration not stated) |  |  | inactive |
| c1ccc(P(=C2c3ccccc3-c3ccccc32)(c2ccccc2)c2ccccc2)cc1 |  |  | inactive |
| CN(C)Cc1cc(C(=O)/C=C/c2ccc(O)cc2)cc(CN(C)C)c1O |  |  | inactive |
| Oc1ccc(/C=N/c2nccs2)c(O)c1 | > 200 | 138 |  |
| COC(=O)/C=C/c1cnc2c(c1)oc(=O)n2C | > 200 | > 200 |  |
| N#C/C(=C\c1cccc(C#N)c1)C(=O)O | > 50.1 | > 50.1 |  |
| COc1cc2cc(c1Cl)N(C)C(=O)CC(OC(=O)C(C)N(C)C(=O)C(C)C)C1(C)OC1C(C)C1CC(O)(NC(=O)O1)C(OC)/C=C/C=C(C)C2OC (configuration not stated) |  |  | inactive |
| COc1nc(NC2OC(COC(C)=O)C(OC(C)=O)C(OC(C)=O)C2OC(C)=O)c(N=C(C)C(C)=O)c(=O)n1C (configuration not stated) |  |  | inactive |
| Cc1ccc2[nH]c(=O)c(-c3cnc(=O)[nH]n3)c(O)c2c1 | 3.02 | 15.1 |  |
| CCC(C)C(NC(=O)C(N)CCCCN)C(=O)NC(CCC(=O)O)C(=O)NC(CO)C(=O)NC(C)C(=O)NC(C(=O)NC(CC(N)=O)C(=O)NC(CC(C)C)C(=O)NC(CO)C(=O)NC(CCC(N)=O)C(=O)O)C(C)O (configuration not stated) (H-KIESATNLSQ-OH; configuration not given here) | > 57.5 | > 57.5 |  |
| CC(C)N(C(C)C)[PH+]1O[PH+](N(C(C)C)C(C)C)O[PH+](N(C(C)C)C(C)C)O[PH+](N(C(C)C)C(C)C)O1.[C-]#[O+].[C-]#[O+].[C-]#[O+].[C-]#[O+].[C-]#[O+].[C-]#[O+].[C-]#[O+].[C-]#[O+].[Mo].[Mo] (configuration not stated) | > 35.5 | > 35.5 |  |
| CCCN(CCC)c1nc2ccc(NC(=O)OCC)cc2s1 | > 42.7 | 32.4 |  |

| SMILES | EC50 [µM] | IC50 [µM] | outcome |
| --- | --- | --- | --- |
| O=C(/C=C/c1ccc(O)c(O)c1)NCCOC(=O)/C=C/c1ccc(O)c(O)c1 | > 200 | 8.51 |  |
| COC(=O)/C=C1/Nc2c(n(C)c(=O)n(C)c2=O)NC1=O | > 200 | > 200 |  |
| CC1(C)N=C(N)N=C(N)N1c1cccc(/C=C(\C#N)c2ccccc2)c1 | > 200 | 4.79 |  |
| CC1(C)CN=C(Nc2ccc(F)cc2)S1 | > 200 | > 200 |  |
| CC(=O)C1(c2ccccc2)CCNCC1 |  |  | inactive |
| CCOC(=O)c1c(NC(=O)c2ccccc2)c(C#N)c2n1CCCCC2 | > 100 | > 100 |  |
| N#CC(C#N)=Cc1ccccc1[N+](=O)[O-] | > 302 | 15.1 |  |
| CCCCCCNC(=O)CCN(C(=O)O)S(=O)(=O)c1ccc(NC(=O)c2ccccc2)cc1 | > 380 | > 380 |  |
| Cc1ccc(N=C[N-]c2ccc(C)cc2)cc1.Cc1ccc(N=C[N-]c2ccc(C)cc2)cc1.O=C([O-])C(F)(F)F.O=C([O-])C(F)(F)F.[OH3+].[OH3+].[Rh+2].[Rh+2] | > 14.1 | > 14.1 |  |
| O=C1c2cc([N+](=O)[O-])ccc2-c2c(S)cccc21 | > 200 | 50.1 |  |
| COC(=O)c1c(N)n[nH]c1N |  |  | inactive |
| Cc1nc(C)c(N2CCN(S(N)(=O)=O)CC2)c(=O)[nH]1 | > 200 | > 200 |  |
| O=S(=O)(O)CC(O)CN(CCO)CCO (configuration not stated) | > 200 | > 200 |  |
| c1ccc([P+](CCCCCCCCCC[P+](c2ccccc2)(c2ccccc2)c2ccccc2)(c2ccccc2)c2ccccc2)cc1 | > 200 | 0.589 |  |
| CC(=O)OCC1OC(N2C(C)=C(C(C)=O)C(c3ccco3)C(C#N)=C2S)C(OC(C)=O)C(OC(C)=O)C1OC(C)=O (configuration not stated) | > 200 | 110 |  |
| O=C(O)c1ccc(C2COc3ccc(Cl)cc3C2)cc1 (configuration not stated) | > 174 | 105 |  |
| CC(=O)Oc1cc(C)c2c(c1)CCC1C3CCC(OC(C)=O)C3(C)CC(O[N+](=O)[O-])C21O (configuration not stated) | > 200 | > 200 |  |
| C/C(=N/NC(=O)c1ccccc1S(N)(=O)=O)C(CN1CCCCC1)C(C1=C(O)C2C=CC=CC2OC1=O)c1ccccc1 (configuration not stated) | > 21.4 | > 21.4 |  |
| O=C(/C=C/c1ccc(O)cc1)OC[C@@H](O)COC1OC(CO)C(O)C(O)C1O (some centres not stated) |  |  | inactive |
